Results taken from patent US7928189B2, “PCSK9 polypeptide fragment” (Ottawa Health Research Institute, priority 2008, dated 2011).
Where no end group is shown, it is not given here. [ ]: non-standard residue; d: D form. pS = N[C@@H](COP(=O)(O)O)C(=O)O

Key:
Format in all cases: cell-based, human
[1] = tested on: LDLR levels in Huh7 cells; assay: Peptides added to cultured cells, LDLR immunoblot of total cell lysates; conditions: 24 hours, media minus FBS
Experimental: Cells were seeded onto 6 well plates and grown to ˜80% confluency. All cell lines were grown in DMEM (Dulbecco's Modified Eagle's Medium)+10% (v/v) FBS (fetal bovine serum)+280 μg/ml GTM (gentamycin). In this case, cells were incubated overnight in the same media in the absence of FBS for 12 hours. Peptides are then added to media minus FBS, and at indicated concentrations and this media+peptide is added onto cells cultured for additional 24 hours. Following this incubation we collected the spent media and total cell lysates (TCL) in the presence of protease inhibitor cocktail. 50 μg of proteins from TCL were then fractionated by SDS-PAGE, transferred to nitrocellulose and immunoblotted following standard protocols with a commercial anti LDLR antibody. The protein signals for LDLR were quantified by densitometry using Syngene Chemigenius 2XE imager and Gene Tools software. All values are made relative to values from untreated control cells set as 1 and presented as mean±SEM ([…]).

[2] = tested on: LDLR levels in Huh7 cells; assay: Kinase inhibitor incubation, LDLR immunoblot of total cell lysates; conditions: 16 hrs, SSP at 200 nm, GK at 25 μg/ml, relative to untreated cells
Experimental: The level of LDLR was quantified in Huh7 cells by immunoblotting of total cell lysates (50 μg) in response to overnight incubation without (control) or with two different kinase inhibitors, staurosporine (SSP at 200 nm) or GK (genistein at 25 μg/ml) (FIG. 11A). Huh7 cells were seeded onto 6 well plates and grown to 80% confluency in DMEM (Dulbecco's Modified Eagle's Medium)+10% (v/v) FBS (fetal bovine serum)+280 μg/ml GTM (gentamycin). Cells were then incubated for 16 hrs in the same media in the presence or absence of kinase inhibitor; staurosporine (SSP at 200 nm) or GK (genistein at 25 μg/ml). Cells were lysed in 1XRIPA buffer [50 mM Tris (pH 7.6), 150 mM NaCl, 1% (v/v) NP-40, 0.5% (w/v) DOC, 0.1% (w/v) SDS] in the presence of inhibitors, as above. Lysates were rotated at 4° C. for 30 min, centrifuged at 13,000×g for 3 min and supernatants collected. Protein concentrations in total cell lysates were determined by the Bradford dye-binding method using Bio-Rad's Protein Assay Kit (Bio-Rad; Mississauga, ON, CAN). LDLR levels were analyzed by immunoblotting following a standard protocol. The protein signals were quantified by densitometry using Syngene Chemigenius 2XE imager and Gene Tools software. […]

[3] = tested on: PCSK9 phosphorylation in Huh7 cells; assay: Kinase inhibitor incubation, radiolabelling and immunoprecipitation of secreted PCSK9; conditions: 32P-orthophosphate, 16 hrs, SSP at 200 nm, GK at 25 μg/ml
Experimental: Untransfected and transfected HepG2 and Huh7 cells were grown to confluence as above. Prior to radiolabeling cells were incubated for 4 hours in serum-free DMEM without sodium phosphate (Invitrogen) or methionine/cysteine (Met/Cys) free DMEM (Invitrogen) and then incubated for 16 hrs in the same media in the presence of either 250 μCi 32P-orthophosphate or 250 μCi 35S-Met/Cys. Media and TCLs were harvested and immunoprecipitated as described above. Samples were fractionated through a 12% SDSPAGE. Following electrophoresis gels were dried and visualized by phosphoimaging using a Typhoon Imager. Signals were quantified using ImageQuant 5.2 software using the integer integration method when comparing samples within a lane and, for samples between lanes, by volume quantitation as recommended. The level of LDLR was quantified in Huh7 cells by immunoblotting of total cell lysates (50 μg) in response to overnight incubation without (control) or with two different kinase inhibitors, staurosporine (SSP at 200 nm) or GK (genistein at 25 μg/ml) (FIG. 11A). […] Protein concentrations in total cell lysates were determined by the Bradford dye-binding method using Bio-Rad's Protein Assay Kit (Bio-Rad; Mississauga, ON, CAN). LDLR levels were analyzed by immunoblotting following a standard protocol. […]

[4] = tested on: LDLR levels in Huh7 cells; assay: Overexpression of PCSK9 phosphorylation mutants, LDLR immunoblot; conditions: 72 hours post-transfection, in comparison to wildtype PCSK9
Experimental: Huh7 cells were untransfected (C-control) or transiently transfected with cDNAs encoding either wild-type (WT) PCSK9, or the naturally-occurring propeptide mutants shown to decrease PCSK9 phosphorylation; A53V PCSK9 and R46L PCSK9 or the engineered propeptide mutants that prevent phosphorylation; S47A PCSK9, E49A PCAK9 and E49D PCSK9 or the engineered C-terminal mutants that prevent phosphorylation; S688A and E690A. 72 hours post-transfection spent media and total cell lysates were collected as described herein. 50 μg of total cell lysates were fractionated through a 7% NuPAGE Tris-Acetate Gel (Invitrogen) and immunoblotted for LDLR as described below. The protein signals were quantified by densitometry using Syngene Chemigenius 2XE imager and Gene Tools software. All values were made relative to values from control cells set as 1 and presented as mean±SEM (n=3). Data were analyzed using GraphPad Prism 5.0 statistical software with significance defined as p<0.05.

Compound | effect on LDLR degradation in comparison to control ([1]; peptide 10 μM) | effect on LDLR degradation in comparison to control ([1]; peptide 100 μM) | other results
VLALRS(phos)EEDGLAEAP (VLALR[pS]EEDGLAEAP) [SEQ ID NO:3, phosphorylated PCSK9 polypeptide fragment comprising phosphoSerine 47] | accentuate LDLR degradation | accentuate LDLR degradation | 
RSRHLAQAS(phos)QELQ (RSRHLAQA[pS]QELQ) [SEQ ID NO:5, phosphorylated PCSK9 polypeptide fragment comprising phosphoSerine 688] | protect LDLR from degradation | protect LDLR from degradation | 
CN[C@@H]1C[C@H]2O[C@@](C)([C@@H]1OC)n1c3ccccc3c3c4c(c5c6ccccc6n2c5c31)C(=O)NC4 [SSP, staurosporine] |  |  | level of LDLR [2]: increased levels of LDLR; phosphorylation of PCSK9 and its prodomain [3]: neither PCSK9 nor its prodomain are phosphorylated
S47E: engineered propeptide mutant that mimics PCSK9 propeptide phosphorylation |  |  | level of LDLR / LDLR degradation [4]: increased LDLR degradation
VLALRSEEDGLAEAP (homo sapiens) [SEQ ID NO:2, unphosphorylated PCSK9 polypeptide fragment comprising Serine 47] | protect LDLR from degradation | protect LDLR from degradation | 
O=c1c(-c2ccc(O)cc2)coc2cc(O)cc(O)c12 [GK, genistein] |  |  | level of LDLR [2]: not; phosphorylation of PCSK9 and its prodomain [3]: does not affect PCSK9 phosphorylation
RSRHLAQASQELQ (homo sapiens) [SEQ ID NO:4, unphosphorylated PCSK9 polypeptide fragment comprising Serine 688] | protect LDLR from degradation |  | 
